The values below come from PubChem BioAssay AID280 (DTP/NCI, 2004).

“And” between values parts separate entries of the source, which are not always exact repeats. Equal entries are not always repeated. Inconclusive results and toxic doses are left out.

The test system of the assay is nude mice, LOX melanoma ip, survival T/C. The experiment in a line: NCI In Vivo Anticancer Drug Screen. Data for tumor model Human Amelanotic Melanoma (LOX) (intraperitoneal) in NU/NU BALB/C (nude) mice. The conditions noted are these: endpoint: median survival time, schedule: Q04DX003 (ip), higher = longer survival. As for the experimental part:
The antitumor activity of compounds was measured in mice bearing transplantable tumors. Survival or tumor size were measured and the results are expressed as the measurement made in the treated group (T) divided by the measurement made in the vehicle treated control group (C). The tumor model used in this assay is Human Amelanotic Melanoma (LOX) (intraperitoneal) in NU/NU BALB/C (nude) mice

The mark [1] stands for this setting: dose: 18.75 mg/kg/injection, vehicle: Klucel (hydroxypropylcellulose) (HPC).
[2] abbreviates: dose: 37.5 mg/kg/injection, vehicle: Klucel (hydroxypropylcellulose) (HPC).
[3] abbreviates: dose: 75.0 mg/kg/injection, vehicle: Klucel (hydroxypropylcellulose) (HPC).

Regarding `COc1cc(C2=NCCc3cc4c(cc32)OCO4)cc(OC)c1OC`, the T/C was 114 % of control (dose: 18.75 mg/kg/injection, vehicle: saline + alcohol); 115 % of control (dose: 37.5 mg/kg/injection, vehicle: saline + alcohol); 110 % of control (dose: 75.0 mg/kg/injection, vehicle: saline + alcohol); 115 % of control (dose: 150.0 mg/kg/injection, vehicle: saline + alcohol).

In the case of `C=CC1(C)CC(=O)C2(O)C(C)(O1)C(OC(C)=O)C(O)C1C(C)(C)CCC(O)C12C` (centres undefined), the T/C is 102 % of control (dose: 8.0 mg/kg/injection, vehicle: DMSO); 103 % of control (dose: 16.0 mg/kg/injection, vehicle: DMSO); 102 % of control (dose: 32.0 mg/kg/injection, vehicle: DMSO); 91 % of control (dose: 64.0 mg/kg/injection, vehicle: DMSO).

Turning to `N/C(=N\OC(=O)Nc1ccc(CSc2ccc(Cl)cc2)o1)c1ccccn1`, the T/C is, setting by setting: under setting [1], 97 % of control; under setting [2], 97 % of control; under setting [3], 92 % of control; (dose: 150.0 mg/kg/injection, vehicle: Klucel (hydroxypropylcellulose) (HPC)) 102 % of control.

Consider `Cc1cc2c(=O)cc(-c3ccccc3)oc2c(C(=O)O)c1C`, for which the T/C (dose: 62.5 mg/kg/injection, vehicle: saline with Tween-80) is 95 % of control; the T/C (dose: 125.0 mg/kg/injection, vehicle: saline with Tween-80) was 94 % of control; the T/C (dose: 250.0 mg/kg/injection, vehicle: saline with Tween-80) was 90 % of control.

Regarding `O=C(CN1CCOCC1)Nc1nc(-c2ccc(Cl)cc2)cs1`, the T/C reads like this: (dose: 75.0 mg/kg/injection, vehicle: DMSO) 119 % of control; (dose: 150.0 mg/kg/injection, vehicle: DMSO) 112 % of control; (dose: 300.0 mg/kg/injection, vehicle: DMSO) 88 % of control; (dose: 600.0 mg/kg/injection, vehicle: DMSO) 95 % of control; (dose: 1200.0 mg/kg/injection, vehicle: DMSO) 92 % of control.

For the compound `CCOC(=O)c1ccc(NN=NCCF)cc1`, the T/C by setting is: (dose: 75.0 mg/kg/injection, vehicle: distilled water + Tween-80 + alcohol) 111 % of control; (dose: 150.0 mg/kg/injection, vehicle: distilled water + Tween-80 + alcohol) 106 % of control; (dose: 300.0 mg/kg/injection, vehicle: distilled water + Tween-80 + alcohol) 110 % of control; (dose: 600.0 mg/kg/injection, vehicle: distilled water + Tween-80 + alcohol) 100 % of control.

For `Cc1cc(Nc2ccc3c(c2)OCO3)c2cc3c(cc2n1)OCO3`, the T/C is 106 % of control under setting [3]; 152 % of control and 158 % of control (dose: 600.0 mg/kg/injection, vehicle: Klucel (hydroxypropylcellulose) (HPC)).

Turning to `CNC(=O)/C=C/C1=CN2C(=O)c3ccc(C)c(O)c3NC(OC)C2C1` (centres undefined), the T/C (dose: 200.0 micrograms/kg/injection, vehicle: saline) was 121 % of control.

Regarding `COC(=O)C1(F)C(=O)NC(=O)NC1OC` (centres undefined), the T/C (dose: 50.0 mg/kg/injection, vehicle: Klucel (hydroxypropylcellulose) (HPC)) was 110 % of control; the T/C (dose: 100.0 mg/kg/injection, vehicle: Klucel (hydroxypropylcellulose) (HPC)) was 98 % of control; the T/C (dose: 200.0 mg/kg/injection, vehicle: Klucel (hydroxypropylcellulose) (HPC)) is 92 % of control; the T/C (dose: 400.0 mg/kg/injection, vehicle: Klucel (hydroxypropylcellulose) (HPC)) is 104 % of control; the T/C (dose: 800.0 mg/kg/injection, vehicle: Klucel (hydroxypropylcellulose) (HPC)) is 94 % of control.

As to `N=C(N)c1ccc(N=Nc2c(O)ccc3cc(O)ccc23)cc1`, the T/C runs as follows: under setting [1], 92 % of control; under setting [2], 102 % of control; (dose: 300.0 mg/kg/injection, vehicle: Klucel (hydroxypropylcellulose) (HPC)) 95 % of control.

Regarding `Cc1nc2c(N)cc(Cl)cc2[nH]1`, the T/C was 114 % of control (dose: 50.0 mg/kg/injection, vehicle: saline with Tween-80); 112 % of control (dose: 100.0 mg/kg/injection, vehicle: saline with Tween-80); 99 % of control (dose: 200.0 mg/kg/injection, vehicle: saline with Tween-80).

Take `C=C(C)/C([O-])=N/[N+](C)(C)CC(O)CCCCCCCCCCCC` (centres undefined): the T/C runs as follows: (dose: 2.5 mg/kg/injection, vehicle: Klucel (hydroxypropylcellulose) (HPC)) 88 % of control; (dose: 5.0 mg/kg/injection, vehicle: Klucel (hydroxypropylcellulose) (HPC)) 91 % of control; (dose: 10.0 mg/kg/injection, vehicle: Klucel (hydroxypropylcellulose) (HPC)) 91 % of control and 98 % of control; (dose: 20.0 mg/kg/injection, vehicle: Klucel (hydroxypropylcellulose) (HPC)) 101 % of control; (dose: 40.0 mg/kg/injection, vehicle: Klucel (hydroxypropylcellulose) (HPC)) 102 % of control and 105 % of control; (dose: 80.0 mg/kg/injection, vehicle: Klucel (hydroxypropylcellulose) (HPC)) 105 % of control. For the setting “dose: 160.0 mg/kg/injection, vehicle: Klucel (hydroxypropylcellulose) (HPC)”, the T/C is 87 % of control.

In the case of `CC(=O)NO`, the T/C reads like this: (dose: 75.0 mg/kg/injection, vehicle: water) 101 % of control; (dose: 150.0 mg/kg/injection, vehicle: water) 101 % of control; (dose: 300.0 mg/kg/injection, vehicle: water) 103 % of control; (dose: 600.0 mg/kg/injection, vehicle: water) 103 % of control; (dose: 1200.0 mg/kg/injection, vehicle: water) 92 % of control.

As to `NC(Cc1ccccc1)C(=O)OCN1C(=O)C2C3C=CC(C2C1=O)C1C2C(=O)N(COC(=O)C(N)Cc4ccccc4)C(=O)C2C31` (centres undefined), the T/C reads like this: (dose: 25.0 mg/kg/injection, vehicle: water) 105 % of control; (dose: 50.0 mg/kg/injection, vehicle: water) 109 % of control; (dose: 100.0 mg/kg/injection, vehicle: water) 107 % of control; (dose: 200.0 mg/kg/injection, vehicle: water) 116 % of control.

With `CC(/C=C/C=C/C=C/C=C/C=C/C(O)=C1/C(=O)C(CCC(=O)O)N(C)C1=O)=C\C(C)C(OC1CC(O)C(O)C(C)O1)C(C)C` (centres undefined), the T/C by setting is: (dose: 8.3 mg/kg/injection, vehicle: water) 114 % of control; (dose: 13.8 mg/kg/injection, vehicle: water) 114 % of control; (dose: 16.0 mg/kg/injection, vehicle: water) 150 % of control; (dose: 32.0 mg/kg/injection, vehicle: water) 168 % of control; (dose: 107.0 mg/kg/injection, vehicle: water) 116 % of control.

On to `CC(=O)/C(=C\c1ccc(Cl)c(Cl)c1)C(=O)CCN(C)C`, for which the T/C is, setting by setting: (dose: 6.25 mg/kg/injection, vehicle: suspension in saline) 96 % of control; (dose: 12.5 mg/kg/injection, vehicle: suspension in saline) 102 % of control; (dose: 25.0 mg/kg/injection, vehicle: suspension in saline) 96 % of control; (dose: 50.0 mg/kg/injection, vehicle: suspension in saline) 86 % of control; (dose: 100.0 mg/kg/injection, vehicle: suspension in saline) 122 % of control.
